Measurements from paper PMC9064813, “Interaction of the synthetic antithrombotic peptide P10 with thrombin: a spectroscopy study” (RSC Advances, 2019).
Where no end group is shown, it is not given here.

Key:
thrombin [1] = conditions: cited from earlier work; for inhibition of thrombin activity: at a concentration of 0.4 mg mL^−1, purified from Alcalase 2.4L hydrolysate of peanut protein
Description: In addition, three peptides SWAQL, GNHEAGE and CFNEYE were purified from the A ...

thrombin [2] = target: T1, thrombin (Bos taurus, UniProt P00735); test: in vitro antithrombotic activity (thrombin-induced fibrinogen clotting, absorbance at 405 nm); format: biochemical, Bovine
T1 construct: thrombin consists of a 36-residue light chain and a 259-residue heavy chain; purchased Sigma-Aldrich Co. (St. Louis, MO, USA)
Protocol: Antithrombotic activity was determined according to the method of Yang et al.[53] The samples of thrombin and fibrinogen were dissolved in 0.05 M pH 7.4 Tris–HCl buffer, respectively. The determination was carried out using the IMark plate reader (Uji-shi, Kyoto, Japan) at 405 nm. 140 μL of 1 mg mL^−1 fibrinogen and 40 μL of the sample were added to the microplate, then mixed and the absorbance was recorded as Sb. After, 10 μL of thrombin (12 IU mL^−1) was added to the mixture which was maintained at 37 °C for 10 min, and the absorbance was recorded as S. 40 μL of buffer instead of the sample was used for control group, and the absorbances were Cb and C, respectively. The antithrombotic activity was calculated from eqn (5) as follows:5 [drawing 4]

thrombin [3] = target: T1, thrombin; test: fluorescence quenching of thrombin by P10 (Stern-Volmer, binding constant, thermodynamics); parameters: species or system Bovine; conditions: 310 K, log (F0 − F)/F against log [Q]
Description: The Stern–Volmer plot at 290 K and 310 K was plotted to determine the quenching mechanism (static quenching or dynamic quenching), as shown in Fig. 2B. F0 and F represented the fluorescence intensity of thrombin in the absence and presence of P10, respectively. And [Q] represented the concentration of the quencher. In general, the stability and quenching constants of the compounds formed under the static quenching mechanism decrease with increasing temperature. The interaction under dynamic quenching increases the number of effective collisions and enhances energy transfer, thus increasing the quenching constant of the fluorescent material as the temperature increases.[26,30]
To confirm this conclusion, the fluorescence quenching data was further analyzed by the Stern–Volmer eqn (1).[31] Where Ksv represented the quenching constant of the Stern–Volmer.1 [drawing 1]
The binding constant (Kb) and the number of binding sites (n) can be obtained from eqn (2) when small molecules are independently bound to a set of equivalent sites on the macromolecule:[33]2 [drawing 2] […]
The fluorescence spectra were recorded on the Hitachi F-4500 fluorescence spectrophotometer (Hitachi, Japan). […] The fluorescence emission spectrum of the mixture from 290 nm to 420 nm was scanned, and the excitation wavelength was set to 280 nm. […]

KNAENELGEVTVR
antithrombotic activity (thrombin [1]; at a concentration of 1 mg mL^−1): 67.21%

SWAQL [peptide purified from the Alcalase 2.4L hydrolysate of peanut protein]
inhibition of thrombin activity (thrombin [1]): complete inhibition

CFNEYE [peptide purified from the Alcalase 2.4L hydrolysate of peanut protein]
inhibition of thrombin activity (thrombin [1]): complete inhibition

VEPVTVNPHE [anticoagulant peptide purified from Buthus martensii Karsch]
IC50, inhibition of thrombin activity (thrombin [1]; peptide purified from Buthus martensii Karsch): 12 µg/mL

GNHEAGE [peptide purified from the Alcalase 2.4L hydrolysate of peanut protein]
inhibition of thrombin activity (thrombin [1]): complete inhibition

AGFAGDDAPR [P10, AGFAGDDAPR]
IC50 (thrombin [2]): 164 µM | Binding constant Kb (thrombin [3]): 174 M⁻¹
